Here are results for two compounds from patent US20230068687A1, “PROCESS FOR PREPARING A SOLID FORM OF BASIC AMINO ACID SALTS OF POLYUNSATURATED FATTY ACIDS” (SILICYCLE INC., priority 2020, published 2023).

Data set [1] is described as follows: Oxidative status (peroxide value, anisidine value) of starting materials and products as obtained, CDR FoodLab Junior analyzer. The data set is classed as physicochemical. The conditions noted are these: as obtained / as used, before storage. How it is done: The final product in powder form is isolated by evaporating said first and second organic solvents and water from the reaction mixture to recover said basic amino acid salts of PUFAs. Preferably, said evaporation step is carried under reduced pressure between about 0° C.-70° C. depending on the properties of the equipment used. […] The evaporation step requires said first/second organic solvents and water to be in a liquid form, thereby excluding the freeze-drying methods that require the solvents to be frozen. The oxidative status of the obtained final product is quantified by peroxide value (PV), anisidine value (AV) and Totox value. PV is a measure of the level of the primary oxidation products (lipid hydroperoxides) in the product, which is specified in milliequivalents O2 per kg of sample, while the AV is an unspecific measure of saturated and unsaturated carbonyl compounds. Totox is calculated by the equation Totox=2*PV+AV.
(§1) Food Lab Analyzer: Among several techniques known in the art for determining the oxidative levels of a sample, CDR FoodLab® Junior analyzer is used herein for determining PV and AV. The procedures are described as below.
(§2) The solid product 0.5 g was dissolved in 2 mL of MeOH and HCl solution with the ratio of 1:10 (v/v). The mixture was stirred for 5 minutes, followed by the addition of 5 mL of water. The mixture was extracted with 3 mL of Hexane containing 100 ppm butylated hydroxytoluene (BHT). The organic layer was dried over MgSO4, filtrated and evaporated under reduced pressure at the temperature of 0-70° C. to get the fish oil in free acid form, which was evaluated with the CDR FoodLab® Junior analyzer to get anisidine and peroxide values using the Food Lab analyzer.

Data set [2] is described as follows: Stability examination of L-lysine salts stored in clear vials with closed lids at room temperature (Table 1). The conditions noted are these: for TOTOX: Totox=2*PV+AV; for AV / PV: closed lids, room temperature. Format: physicochemical. How it is done: The comparison of oxidative status of basic amino acid salts of PUFAs, starting material in ester form and fish oil in free acid form are assessed by measuring the PV and AV, then all the samples are subjected to the same oxidizing condition over a certain period of time, followed by the measuring PV and AV of the samples. The oxidizing conditions are selected from one of: 1) storage in closed containers at atmospheric condition, opened once daily for the first month, twice weekly for the second month, once weekly for the third month and twice a month up to 6 months; 2) storage in loosely closed containers exposed to air at 45° C. for 1 month.
as §1, §2
The molar ratio of EPA to L-lysine was 1:1. The mixture was stirred at atmospheric condition for 5 minutes to obtain a homogenous solution. 30 mL of ethanol was added to precipitate the L-lysine amino acid salt. […] About 4.5 g of EPA-Lys was stored in a 20 ml of clear vial with a diameter of 27 mm, which was placed with closed lids on the bench at room temperature for the stability examination for 90 days.
The molar ratio of DHA to L-lysine was 1:1. The mixture was stirred at atmospheric condition for 5 minutes to obtain a homogenous solution. 30 mL of ethanol was added to precipitate the L-lysine amino acid salt. […] About 4.5 g of […] was stored in a 20 ml of clear vial with a diameter of 27 mm, which was placed with closed lids on the bench at room temperature for the stability examination for 90 days.
The molar ratio of seal oil in free acid form to L-lysine was 1:1. The mixture was stirred at atmospheric condition for 5 minutes to obtain a homogenous solution. 35 mL of ethanol was added to precipitate the L-lysine amino acid salt.

In the case of `CC/C=C\C/C=C\C/C=C\C/C=C\C/C=C\C/C=C\CCC(=O)O.NCCCC[C@H](N)C(=O)O` [DHA-Lys, L-Lysine Salt of Docosahexaenoic Acid], in data set [1], the “AV (anisidine value)” value came out at 29.3 A/g and the “PV (peroxide value)” value is listed as 16.0 meqO2/kg. For the same compound, in data set [2] (Time 1 d), the TOTOX is 61.3, the AV is reported as 29.3 A/g and the PV was 16.0 meq O2/Kg. In data set [2] (Time 61 d), the TOTOX stood at 11.8, the AV is reported as 4.0 A/g and the PV is 3.9 meq O2/Kg.

For the compound `CC/C=C\C/C=C\C/C=C\C/C=C\C/C=C\CCCC(=O)O.NCCCC[C@H](N)C(=O)O` [EPA-Lys, L-Lysine Salt of Eicosapentaenoic Acid], in data set [1], the “AV (anisidine value)” value is 9.5 A/g and the “PV (peroxide value)” value is 6.0 meqO2/kg. In addition, in data set [2] (Time 1 d), the TOTOX is given as 21.5, the AV was 9.5 A/g and the PV was 6.0 meq O2/Kg. Moreover, in data set [2] (Time 61 d), the TOTOX was determined as 3.8, the AV is less than 0.5 A/g and the PV is reported as 1.9 meq O2/Kg.
